Source: patent US9567302B2, “Carbamate compounds and of making and using same” (Abide Therapeutics, Inc., priority 2012, dated 2017)

Assays:
Format in all cases: biochemical
ABHD6 [1] = biological target: T1, ABHD6 (Mus musculus, UniProt Q8R2Y0); assay: In vitro competitive ABPP, % inhibition at fixed concentration, ABHD6; parameters: from tissue
T1 sequence (Q8R2Y0 1-336): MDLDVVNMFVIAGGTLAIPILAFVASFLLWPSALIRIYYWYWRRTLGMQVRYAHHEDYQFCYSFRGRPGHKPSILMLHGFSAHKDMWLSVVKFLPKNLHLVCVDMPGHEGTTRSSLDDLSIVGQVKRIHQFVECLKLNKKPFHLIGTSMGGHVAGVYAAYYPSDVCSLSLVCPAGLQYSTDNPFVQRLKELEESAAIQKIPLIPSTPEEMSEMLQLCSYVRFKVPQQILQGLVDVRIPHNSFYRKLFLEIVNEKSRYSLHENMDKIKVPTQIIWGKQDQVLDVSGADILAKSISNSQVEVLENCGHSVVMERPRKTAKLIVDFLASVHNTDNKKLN
Protocol: (§1) In Vitro Competitive Activity-Based Protein Profiling.
(§2) Proteomes (mouse brain membrane fraction or cell lysates) (50 μL, 1.0 mg/ml total protein concentration) were preincubated with varying concentrations of inhibitors at 37° C. After 30 min, FP-Rh (1.0 μL, 50 μM in DMSO) was added and the mixture was incubated for another 30 min at 37° C. Reactions were quenched with SDS loading buffer (50 μL—4×) and run on SDS-PAGE. Following gel imaging, serine hydrolase activity was determined by measuring fluorescent intensity of gel bands corresponding to MAGL, ABHD6 and FAAH using ImageJ 1.43u software.

MAGL [2] = biological target: T2, MAGL (Mus musculus, UniProt O35678); assay: In vitro competitive ABPP, % inhibition at fixed concentration, MAGL; parameters: from tissue
T2 sequence (O35678 1-303): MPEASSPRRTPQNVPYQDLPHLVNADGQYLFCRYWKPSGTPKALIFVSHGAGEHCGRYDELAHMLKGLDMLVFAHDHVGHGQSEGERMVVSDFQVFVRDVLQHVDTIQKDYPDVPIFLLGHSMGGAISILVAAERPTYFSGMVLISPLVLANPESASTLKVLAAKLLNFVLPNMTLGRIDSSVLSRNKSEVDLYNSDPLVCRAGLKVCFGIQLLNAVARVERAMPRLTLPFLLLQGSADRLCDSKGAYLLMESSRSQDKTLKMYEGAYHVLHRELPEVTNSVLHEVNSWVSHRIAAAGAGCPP
Protocol: as §1, §2

FAAH [3] = biological target: T3, FAAH (Mus musculus, UniProt O08914); assay: In vitro competitive ABPP, % inhibition at fixed concentration, FAAH; parameters: from tissue
T3 sequence (O08914 1-579): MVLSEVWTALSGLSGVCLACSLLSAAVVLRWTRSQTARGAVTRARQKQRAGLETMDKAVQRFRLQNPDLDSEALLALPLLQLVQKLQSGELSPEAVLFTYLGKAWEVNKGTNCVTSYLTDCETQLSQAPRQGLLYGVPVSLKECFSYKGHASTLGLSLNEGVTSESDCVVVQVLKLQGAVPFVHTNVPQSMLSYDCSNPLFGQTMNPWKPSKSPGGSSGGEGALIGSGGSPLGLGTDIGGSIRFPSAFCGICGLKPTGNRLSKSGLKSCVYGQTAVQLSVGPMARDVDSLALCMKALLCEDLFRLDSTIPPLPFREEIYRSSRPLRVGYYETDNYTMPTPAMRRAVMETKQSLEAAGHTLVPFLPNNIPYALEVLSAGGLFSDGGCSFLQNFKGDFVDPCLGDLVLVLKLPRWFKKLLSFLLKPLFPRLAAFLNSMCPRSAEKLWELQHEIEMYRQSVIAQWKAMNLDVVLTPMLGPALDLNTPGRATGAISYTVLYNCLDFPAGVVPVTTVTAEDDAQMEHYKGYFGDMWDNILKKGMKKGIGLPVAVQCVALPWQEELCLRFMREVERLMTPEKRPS
Protocol: as §1, §2

ABHD6 [4] = biological target: T1, ABHD6; assay: In vitro competitive activity-based protein profiling (FP-Rh), mouse ABHD6; parameters: from tissue; host or cells: mouse brain membrane fraction; conditions: Table 2, mouse proteome, 30 min preincubation at 37° C.
Protocol: as §1
(§3) Proteomes (mouse brain membrane fraction or cell lysates) (50 μL, 1.0 mg/ml total protein concentration) were preincubated with varying concentrations of inhibitors at 37° C. After 30 min, FP-Rh (1.0 μL, 50 μM in DMSO) was added and the mixture was incubated for another 30 min at 37° C. Reactions were quenched with SDS loading buffer (50 μL—4×) and run on SDS-PAGE.

MAGL [5] = biological target: T2, MAGL; assay: In vitro competitive activity-based protein profiling (FP-Rh), mouse MAGL; parameters: from tissue; host or cells: mouse brain membrane fraction; conditions: Table 2, mouse proteome, 30 min preincubation at 37° C.
Protocol: as §1, §3

FAAH [6] = biological target: T3, FAAH; assay: In vitro competitive activity-based protein profiling (FP-Rh), mouse FAAH; parameters: from tissue; host or cells: mouse brain membrane fraction; conditions: Table 2, mouse proteome, 30 min preincubation at 37° C.
Protocol: as §1, §3

| inhibition at 1 µM (ABHD6 [1]) [%] | inhibition at 1 µM (MAGL [2]) [%] | inhibition at 1 µM (FAAH [3]) [%] | IC50 (ABHD6 [4]) [nM] | IC50 (MAGL [5]) [nM] | IC50 (FAAH [6]) [nM] | Compound | further results |
| --- | --- | --- | --- | --- | --- | --- | --- |
| 25 to 75 | 25 to 75 | < 25 | – | – | – | O=C(ON1C(=O)CCC1=O)N1CCN(Cc2ccc(N3CCOCC3)cc2C(F)(F)F)CC1 [Example 76, 2,5-Dioxopyrrolidin-1-yl 4-{[4-(morpholin-4-yl)-2-(trifluoromethyl)phenyl]methyl}piperazine-1-carboxylate] | – |
| < 25 | < 25 | < 25 | – | – | – | C[C@@H]1CN(Cc2ccc(N3CCOCC3)cc2F)CCN1C(=O)ON1C(=O)CCC1=O [Example 79, 2,5-Dioxopyrrolidin-1-yl (2R)-4-{[2-fluoro-4-(morpholin-4-yl)phenyl]methyl}-2-methylpiperazine-1-carboxylate] | – |
| 25 to 75 | < 25 | < 25 | – | – | – | O=C(ON1C(=O)CCC1=O)N1CCN(Cc2c(Cl)cccc2N2CCOCC2)CC1 [Example 81, 2,5-Dioxopyrrolidin-1-yl 4-{[2-chloro-6-(morpholin-4-yl)phenyl]methyl}piperazine-1-carboxylate] | – |
| < 25 | < 25 | < 25 | – | – | – | CC1(C)CN(Cc2ccc(N3CCOCC3)cc2C(F)(F)F)CCN1C(=O)ON1C(=O)CCC1=O [Example 86, 2,5-Dioxopyrrolidin-1-yl 2,2-dimethyl-4-{[4-(morpholin-4-yl)-2-(trifluoromethyl)phenyl]methyl}piperazine-1-carboxylate] | – |
| – | – | – | 100 to 1000 | 1000 to 10000 | > 10000 | Cc1nc2ccc(Cl)cn2c1CN1CCN(C(=O)ON2C(=O)CCC2=O)CC1 [Example 144] | – |
| – | – | – | 1000 to 10000 | 1000 to 10000 | > 10000 | O=C(ON1C(=O)CCC1=O)N1CCN(Cc2cnc3ccc(Cl)cn23)CC1 [Example 145, 2,5-Dioxopyrrolidin-1-yl 4-((6-chloroimidazo[1,2-a]pyridin-3-yl)methyl)piperazine-1-carboxylate] | – |
| – | – | – | 1000 to 10000 | 1000 to 10000 | > 10000 | Cc1nc(N2CCCCC2)sc1CN1CCN(C(=O)ON2C(=O)CCC2=O)CC1 [Example 148, 2,5-Dioxopyrrolidin-1-yl 4-((4-methyl-2-(piperidin-1-yl)thiazol-5-yl)methyl)piperazine-1-carboxylate] | – |

Further lines, the compound ahead of its results:

| Compound | inhibition at 1 µM (ABHD6 [1]) [%] | inhibition at 1 µM (MAGL [2]) [%] | inhibition at 1 µM (FAAH [3]) [%] | IC50 (ABHD6 [4]) [nM] | IC50 (MAGL [5]) [nM] | IC50 (FAAH [6]) [nM] | further results |
| --- | --- | --- | --- | --- | --- | --- | --- |
| CC(=O)N1CCN(C(=O)ON2C(=O)CCC2=O)CC1 [Example 51, 2,5-Dioxopyrrolidin-1-yl 4-acetylpiperazine-1-carboxylate] | – | – | – | – | – | – | inhibition at 10 µM (ABHD6 [1]): < 25%; inhibition at 10 µM (MAGL [2]): < 25%; inhibition at 10 µM (FAAH [3]): < 25% |
| C[C@H]1CN(Cc2ccc(N3CCOCC3)cc2C(F)(F)F)CCN1C(=O)ON1C(=O)CCC1=O [Example 77, 2,5-Dioxopyrrolidin-1-yl (2S)-2-methyl-4-{[4-(morpholin-4-yl)-2-(trifluoromethyl)phenyl]methyl}piperazine-1-carboxylate] | 25 to 75 | 25 to 75 | < 25 | – | – | – | – |
| C[C@@H]1CN(Cc2ccc(N3CCOCC3)cc2C(F)(F)F)CCN1C(=O)ON1C(=O)CCC1=O [Example 80, 2,5-Dioxopyrrolidin-1-yl (2R)-2-methyl-4-{[4-(morpholin-4-yl)-2-(trifluoromethyl)phenyl]methyl}piperazine-1-carboxylate] | < 25 | < 25 | < 25 | – | – | – | – |
| CC1(C)CN(Cc2ccc(N3CCOCC3)cc2OC(F)(F)F)CCN1C(=O)ON1C(=O)CCC1=O [Example 87, 2,5-Dioxopyrrolidin-1-yl 2,2-dimethyl-4-{[4-(morpholin-4-yl)-2-(trifluoromethoxy)phenyl]methyl}piperazine-1-carboxylate] | < 25 | < 25 | < 25 | – | – | – | – |
| O=C1COc2ccc(CN3CCN(C(=O)ON4C(=O)CCC4=O)CC3)cc2N1 [Example 134, 2,5-Dioxopyrrolidin-1-yl 4-((3-oxo-3,4-dihydro-2H-benzo[b][1,4]oxazin-6-yl)methyl)piperazine-1-carboxylate] | – | – | – | 1000 to 10000 | 1000 to 10000 | > 10000 | – |
| Cc1nn(-c2ccccc2)cc1CN1CCN(C(=O)ON2C(=O)CCC2=O)CC1 [Example 138, 2,5-Dioxopyrrolidin-1-yl 4-((3-methyl-1-phenyl-1H-pyrazol-4-yl)methyl)piperazine-1-carboxylate] | – | – | – | 100 to 1000 | 1000 to 10000 | 1000 to 10000 | – |
| Cn1nc(-c2ccccc2)cc1CN1CCN(C(=O)ON2C(=O)CCC2=O)CC1 [Example 139, 2,5-dioxopyrrolidin-1-yl 4-((1-methyl-3-phenyl-1H-pyrazol-5-yl)methyl)piperazine-1-carboxylate] | – | – | – | 100 to 1000 | 100 to 1000 | > 10000 | – |
| Cc1nc(-c2ccccc2)oc1CN1CCN(C(=O)ON2C(=O)CCC2=O)CC1 [Example 143, 2,5-Dioxopyrrolidin-1-yl 4-((4-methyl-2-phenyloxazol-5-yl)methyl)piperazine-1-carboxylate] | – | – | – | 1000 to 10000 | 100 to 1000 | > 10000 | – |
| Cn1cc(CN2CCN(C(=O)ON3C(=O)CCC3=O)CC2)c(-c2ccccc2)n1 [Example 149, 2,5-Dioxopyrrolidin-1-yl 4-((1-methyl-3-phenyl-1H-pyrazol-4-yl)methyl)piperazine-1-carboxylate] | – | – | – | 1000 to 10000 | 1000 to 10000 | > 10000 | – |
| O=C(ON1C(=O)CCC1=O)N1CCN(C(c2cocn2)c2cocn2)CC1 [Example 152, 2,5-Dioxopyrrolidin-1-yl 4-(bis(oxazol-4-yl)methyl)piperazine-1-carboxylate] | – | – | – | 1000 to 10000 | 1000 to 10000 | 1000 to 10000 | – |
| Cc1cc(Cl)ccc1C(c1ccc(Cl)cc1C)N1CCN(C(=O)ON2C(=O)CCC2=O)CC1 [Example 153, 2,5-Dioxopyrrolidin-1-yl 4-(bis(4-chloro-2-methylphenyl)methyl)piperazine-1-carboxylate] | – | – | – | 1000 to 10000 | 100 to 1000 | > 10000 | – |
| Cc1cc(-c2ccccc2)ccc1CN1CCN(C(=O)ON2C(=O)CCC2=O)CC1 [Example 165, 2,5-Dioxopyrrolidin-1-yl 4-[(2-methyl-4-phenylphenyl)methyl]piperazine-1-carboxylate] | – | – | – | 100 to 1000 | 100 to 1000 | 1000 to 10000 | – |
| CC(C)c1cc(-c2ccccc2)ccc1CN1CCN(C(=O)ON2C(=O)CCC2=O)CC1 [Example 188, 2,5-Dioxopyrrolidin-1-yl 4-{[4-phenyl-2-(propan-2-yl)phenyl]methyl}piperazine-1-carboxylate] | – | – | – | 1000 to 10000 | 100 to 1000 | > 10000 | – |
| CN(C)C(=O)c1cc(-c2ccccc2)ccc1CN1CCN(C(=O)ON2C(=O)CCC2=O)CC1 [Example 189, 2,5-Dioxopyrrolidin-1-yl 4-{[2-(dimethylcarbamoyl)-4-phenylphenyl]methyl}piperazine-1-carboxylate] | – | – | – | 1000 to 10000 | 100 to 1000 | > 10000 | – |
| O=C(ON1C(=O)CCC1=O)N1CCN(Cc2ccc(-c3ccccc3)cc2C(=O)N2CCCC2)CC1 [Example 191, 2,5-Dioxopyrrolidin-1-yl 4-{[4-phenyl-2-(pyrrolidine-1-carbonyl)phenyl]methyl}piperazine-1-carboxylate] | – | – | – | 1000 to 10000 | 100 to 1000 | > 10000 | – |
